Measured values reported in ChEMBL document CHEMBL3045209, “Synthesis of a novel barbiturate from 1-chloro-2,4-dinitrobenzene as an anticonvulsant agent” (2008).
Calls of active or inactive are those of the source. The rule behind the calls is not given here.

Key:
Rattus norvegicus [1] = experiment: Anticonvulsant activity against maximal electroshock-induced convulsion in Rattus norvegicus albino (rat) assessed as tonic extensor convulsion time at 25 mg/kg administered 1 hr before test; type: functional
Rattus norvegicus [2] = experiment: Anticonvulsant activity against maximal electroshock-induced convulsion in Rattus norvegicus albino (rat) assessed as tonic extensor convulsion time at 100 mg/kg administered 1 hr before test; type: functional
Rattus norvegicus [3] = experiment: Anticonvulsant activity against maximal electroshock-induced convulsion in Rattus norvegicus albino (rat) assessed as tonic flexor convulsion time at 50 mg/kg administered 1 hr before test; type: functional
Rattus norvegicus [4] = experiment: Anticonvulsant activity against maximal electroshock-induced convulsion in Rattus norvegicus albino (rat) assessed as clonus convulsion time at 100 mg/kg administered 1 hr before test; type: functional
Rattus norvegicus [5] = experiment: Anticonvulsant activity against maximal electroshock-induced convulsion in Rattus norvegicus albino (rat) assessed as tonic extensor convulsion time at 50 mg/kg administered 1 hr before test; type: functional
Rattus norvegicus [6] = experiment: Anticonvulsant activity against maximal electroshock-induced convulsion in Rattus norvegicus albino (rat) assessed as recovery from convulsion at 25 to 100 mg/kg administered 1 hr before test; type: functional, organism-based
Rattus norvegicus [7] = experiment: Anticonvulsant activity against maximal electroshock-induced convulsion inRattus norvegicus albino (rat) assessed as stupor convulsion time at 50 mg/kg administered 1 hr before test; type: functional
Rattus norvegicus [8] = experiment: Anticonvulsant activity against maximal electroshock-induced convulsion in Rattus norvegicus albino (rat) assessed as tonic flexor convulsion time at 25 mg/kg administered 1 hr before test; type: functional
Rattus norvegicus [9] = experiment: Anticonvulsant activity against maximal electroshock-induced convulsion in Rattus norvegicus albino (rat) assessed as clonus convulsion time at 50 mg/kg administered 1 hr before test; type: functional
Rattus norvegicus [10] = experiment: Anticonvulsant activity against maximal electroshock-induced convulsion in Rattus norvegicus albino (rat) assessed as stupor convulsion time at 100 mg/kg administered 1 hr before test; type: functional
Rattus norvegicus [11] = experiment: Anticonvulsant activity against maximal electroshock-induced convulsion in Rattus norvegicus albino (rat) assessed as tonic flexor convulsion time at 100 mg/kg administered 1 hr before test; type: functional
Rattus norvegicus [12] = experiment: Anticonvulsant activity against maximal electroshock-induced convulsion in Rattus norvegicus albino (rat) assessed as clonus convulsion time at 25 mg/kg administered 1 hr before test; type: functional
Rattus norvegicus [13] = experiment: Anticonvulsant activity against maximal electroshock-induced convulsion in Rattus norvegicus albino (rat) assessed as stupor convulsion time at 25 mg/kg administered 1 hr before test; type: functional
Rattus norvegicus [14] = experiment: Anticonvulsant activity against maximal electroshock-induced convulsion in Rattus norvegicus albino (rat) assessed as recovery from convulsion at 25 mg/kg administered 1 hr before test; type: functional, organism-based; parameters: dose 25 mg/kg

## O=C1CC(=O)NC(=O)N1 [BARBITURIC ACID]
Rattus norvegicus [1]
  Time: 13.2 s
Rattus norvegicus [2]
  Time: 2 s
Rattus norvegicus [3]
  Time: 3.1 s
Rattus norvegicus [4]
  Time: 5.6 s
Rattus norvegicus [5]
  Time: 6.5 s
Rattus norvegicus [6]
  Activity: Active
Rattus norvegicus [7]
  Time: 82.2 s
Rattus norvegicus [8]
  Time: 4.2 s
Rattus norvegicus [9]
  Time: 5.1 s
Rattus norvegicus [10]
  Time: 85.7 s
Rattus norvegicus [11]
  Time: 2.9 s
Rattus norvegicus [12]
  Time: 7.2 s
Rattus norvegicus [13]
  Time: 105.5 s

## O=C1NC(=O)C(c2ccccc2)(c2ccccc2)N1 [PHENYTOIN]
Rattus norvegicus [1]
  Time: 0 s
Rattus norvegicus [14]
  Activity: Active
Rattus norvegicus [8]
  Time: 2.66 s
Rattus norvegicus [12]
  Time: 4.6 s
Rattus norvegicus [13]
  Time: 62.1 s
